Test results: ChEMBL document CHEMBL4513161, “CO-ADD screening of MMV (CH) - Pandemic Response Box” (2021)
≈ marks a conversion by molar mass, not a printed value. Where a name gives a salt, the structure may show the parent alone.

Experiments:
HEK293 = experiment: cells; format: functional, Homo sapiens, ATCC CRL1573; settings: Homo sapiens, ATCC CRL1573, HEK293; ASSAY_TEST Inhibition of Cell Viability; detection method Resazurin; Fluorescence (ex560/em590); MEDIA DMEM with 10% FBS; plate type 384well; TC; CORNING #3712; time 18 hr; read-out: CC50
Pseudomonas aeruginosa [1] = experiment: Antibacterial activity against Pseudomonas aeruginosa PAO397 [PAO1 d(mexAB-oprM) d(mexCD-oprJ) d(mexEF-oprN) d(mexJKL) d(mexXY) d(opmH)] (CO-ADD:GN_211); MIC in CAMBH media using NBS plates, by OD(600); format: functional; settings: ASSAY_TEST Inhibition of Bacterial Growth, detection method Absorption (OD600), MEDIA CAMHB, plate type 384well, CORNING #3640, time 18 hr
Staphylococcus aureus = experiment: microbe, parasite or virus in culture; settings: ATCC 43300, 18 h, ASSAY_TEST Inhibition of Bacterial Growth, detection method Absorption (OD600), MEDIA CAMHB, plate type 384well, NBS, CORNING #3640
Description: Antibacterial activity against Staphylococcus aureus MRSA ATCC 43300 (CO-ADD:GP_020); MIC in CAMBH media, using NBS plates, by OD(600)

Escherichia coli = experiment: microbe, parasite or virus in culture; settings: ATCC 25922, 18 h, ASSAY_TEST Inhibition of Bacterial Growth, detection method Absorption (OD600), MEDIA CAMHB, plate type 384well, NBS, CORNING #3640
Description: Antibacterial activity against Escherichia coli ATCC 25922 (CO-ADD:GN_001); MIC in CAMBH media using NBS plates, by OD(600)

Klebsiella pneumoniae = experiment: microbe, parasite or virus in culture; settings: ATCC 700603, 18 h, ASSAY_TEST Inhibition of Bacterial Growth, detection method Absorption (OD600), MEDIA CAMHB, plate type 384well, NBS, CORNING #3640
Description: Antibacterial activity against Klebsiella pneumoniae MDR ATCC 70063 (CO-ADD:GN_003); MIC in CAMBH media using NBS plates, by OD(600)

Pseudomonas aeruginosa [2] = experiment: microbe, parasite or virus in culture; settings: ATCC 27853, 18 h, ASSAY_TEST Inhibition of Bacterial Growth, detection method Absorption (OD600), MEDIA CAMHB, plate type 384well, NBS, CORNING #3640
Description: Antibacterial activity against Pseudomonas aeruginosa ATCC 27853 (CO-ADD:GN_042); MIC in CAMBH media using NBS plates, by OD(600)

Acinetobacter baumannii = experiment: microbe, parasite or virus in culture; settings: ATCC 19606, 18 h, ASSAY_TEST Inhibition of Bacterial Growth, detection method Absorption (OD600), MEDIA CAMHB, plate type 384well, NBS, CORNING #3640
Description: Antibacterial activity against Acinetobacter baumannii ATCC 19606 (CO-ADD:GN_034); MIC in CAMBH media using NBS plates, by OD600

Candida albicans = experiment: microbe, parasite or virus in culture; settings: ATCC 90028, ASSAY_TEST Inhibition of Fungal Growth, detection method Absorption (OD530), plate type 384well, NBS, CORNING #3640
Description: Antifungal activity against Candida albicans ATCC 90028 (CO-ADD:FG_001); MIC in YNB media using NBS plates, by OD630

Description for Cryptococcus neoformans: Antifungal activity against Cryptococcus neoformans H99 ATCC 208821 (CO-ADD:FG_002); MIC in YNB media using NBS plates, by Resazurin OD(600-570)

| Compound | CC50 (HEK293) | MIC (Pseudomonas aeruginosa [1]) | MIC (Cryptococcus neoformans) | MIC (Staphylococcus aureus) | MIC (Escherichia coli) | MIC (Klebsiella pneumoniae) | MIC (Pseudomonas aeruginosa [2]) | MIC (Acinetobacter baumannii) | MIC (Candida albicans) |
| --- | --- | --- | --- | --- | --- | --- | --- | --- | --- |
| CN(Cc1ccc(C(C)(C)C)cc1)Cc1cccc2ccccc12 [BUTENAFINE HYDROCHLORIDE] | > 20 µM | > 20 µM | 5 µM | > 20 µM | > 20 µM | > 20 µM | > 20 µM | > 20 µM | > 20 µM |
| N[C@H]1CCC[C@H]1C(=O)O | > 20 µM | > 20 µM | > 20 µM | > 20 µM | > 20 µM | > 20 µM | > 20 µM | > 20 µM | > 20 µM |
| O=C1c2cccc3cccc(c23)C(=O)N1CC1CO1 (stereo unspecified) | 4.49 µM | > 20 µM | > 20 µM | 20 µM (≈ 5.07 µg/mL) | > 20 µM | > 20 µM | > 20 µM | > 20 µM | > 20 µM |
| Cc1cc(-c2ccccc2)c(C(=O)C(=O)Nc2ccc(N3CCN(c4ncc(F)cn4)CC3)cc2)n1C [OLOROFIM] | > 20 µM | > 20 µM | > 20 µM | > 20 µM | > 20 µM | > 20 µM | > 20 µM | > 20 µM | > 20 µM |
| O=C(O)c1ccccc1Sc1ncnc2sc3c(c12)CCC3 | > 20 µM | > 20 µM | > 20 µM | > 20 µM | > 20 µM | > 20 µM | > 20 µM | > 20 µM | > 20 µM |
| CCCCCc1ccc(C(=O)NCCn2cc(CCCCCc3c[nH]c(N)n3)nn2)cc1 | > 20 µM | > 20 µM | > 20 µM | > 20 µM | > 20 µM | > 20 µM | > 20 µM | > 20 µM | > 20 µM |
| Nc1ccc2oc(=O)ccc2c1I | > 20 µM | > 20 µM | > 20 µM | > 20 µM | > 20 µM | > 20 µM | > 20 µM | > 20 µM | > 20 µM |
| Nc1cccc(-c2nc(N)nc(NC3Cc4ccccc4C3)n2)c1 | > 20 µM | > 20 µM | > 20 µM | > 20 µM | > 20 µM | > 20 µM | > 20 µM | > 20 µM | > 20 µM |
| CSc1ccc2c(c1)C(N1CCN(C)CC1)Cc1ccccc1S2 (stereo unspecified) [METITEPINE] | > 20 µM | > 20 µM | > 20 µM | > 20 µM | > 20 µM | > 20 µM | > 20 µM | > 20 µM | > 20 µM |
| COC(=O)Nc1nc2c(C)cccc2[nH]1 | > 20 µM | > 20 µM | > 20 µM | > 20 µM | > 20 µM | > 20 µM | > 20 µM | > 20 µM | > 20 µM |
| Nc1ccc(-c2nc3cc(C(F)(F)F)ccc3n2C23CC4CC(CC(C4)C2)C3)cc1 | > 20 µM | > 20 µM | > 20 µM | > 20 µM | > 20 µM | > 20 µM | > 20 µM | > 20 µM | > 20 µM |
| CCCCc1ccc(C(=O)O)nc1 [FUSARIC ACID] | > 20 µM | > 20 µM | > 20 µM | > 20 µM | > 20 µM | > 20 µM | > 20 µM | > 20 µM | > 20 µM |
| CCc1cc(Cc2cnc(N)nc2N)cc2c1N(C)CCC2C (stereo unspecified) | > 20 µM | > 20 µM | > 20 µM | 10 µM (≈ 3.11 µg/mL) | > 20 µM | > 20 µM | > 20 µM | > 20 µM | > 20 µM |
| CCCCCCCc1[nH]c2ccccc2c(=O)c1O | > 20 µM | > 20 µM | > 20 µM | > 20 µM | > 20 µM | > 20 µM | > 20 µM | > 20 µM | > 20 µM |
